# Test results: ChEMBL document CHEMBL1136364, “Synthesis and antimalarial activity of 2-methoxyprop-2-yl peroxides derivatives” (Bioorg Med Chem Lett, 2003)
# Tested on: Plasmodium falciparum
# Test: In vitro antimalarial activity against Plasmodium falciparum FCR3
# Type: functional, organism-based
row,SMILES,IC50 [nM]
1,CCOC(=O)CCCOOC(C)(C)OC,6950
2,COC(C)(C)OOCCC(C)C,1650
3,CCCCCCOOC(C)(C)OC,1550
4,CCCCCCCCCCCCCCCCCCOOC(C)(C)OC,1330
5,CCCCCCCCCCCCOOC(C)(C)OC,670
6,CCCCCCCCCCCCCCCCOOC(C)(C)OC,440
7,COCCOOC(C)(C)OC,3200
8,COC(C)(C)OOCCCOc1ccccc1,870
9,COC(C)(C)OOCCCCC1=CC[C@H]2C[C@@H]1C2(C)C,480
10,COC(C)(C)OOCCc1ccccc1,520
11,CCCCCCCCOOC(C)(C)OC,2600
12,COC(C)(C)OOCCCC#N,12800
13,COC(C)(C)OOCCC1=CC[C@H]2C[C@@H]1C2(C)C,370
14,COC(C)(C)OOCCCc1ccccc1,660
15,COC(C)(C)OOCCCC1=CC[C@H]2C[C@@H]1C2(C)C,600
16,CCCCCCCOOC(C)(C)OC,800
17,CO[C@H]1O[C@@H]2O[C@@]3(C)CC[C@H]4[C@H](C)CC[C@@H]([C@H]1C)[C@@]24OO3 [ARTEMETHER],14
18,C[C@@H]1CC[C@H]2[C@@H](C)C(=O)O[C@@H]3O[C@@]4(C)CC[C@@H]1[C@]32OO4 [ARTEMISININ],55
